{"source": "patent US20250009740A1", "about": "“METHODS AND COMPOSITIONS FOR TARGETING ALTERNATIVE METABOLISM ALONG WITH FLT3 INHIBITOR-MEDIATED ANTILEUKEMIC ACTIONS” (Ohio State Innovation Foundation, priority 2021, published 2025)", "key": {"[1]": {"tested_on": "MOLM-13 cells", "assay": "Pairwise dose combination synergy, MTS cell viability, HSA analysis", "assay_type": "cell-based, human", "description": "(§1) For dinaciclib, cells were treated for 2 hours with the drug before it was washed off and all other drugs were incubated with cells for 48-96 hours. Cell viability was measured with MTS. HSA analysis was used to determine regions of synergy. […] MOLM-13 and MV4-11 cells were treated with vehicle, 50 nM or 100 nM brequinar in combination with vehicle, 4 nM or 8 nM gilteritinib for 96 hours before cells were fixed and permeabilized for intracellular BV421-Ki67 staining and flow cytometry analysis. […] Primary cells were treated with vehicle, single agents or drug combination before cell apoptosis was measured with Annexin V/PI staining. Results are shown as mean±SEM of 3 biological replicates. […] Bone marrow cells from 3 FLT3-ITD patients, 2 FLT3-WT patients and 2 healthy donors were seeded into Methocult at 50,000 cells per condition with vehicle, single agents or drug combinations. The numbers of colonies were quantified for 1st and 2nd platings after 14 days post seeding. Results are shown as means of 2 biological replicates. * p<0.05 in comparison with EPZ015666, dinaciclib or brequinar alone.\n(§2) Next, it was determined whether pharmacologic inhibition of CDK9, DHODH or PRMT5, using commercially available inhibitors (brequinar for DHODH, dinaciclib for CDK1/2/5/9, and EPZ015666 for PRMT5) is synergistic with gilteritinib in AML cells."}, "[2]": {"tested_on": "MV4-11 cells", "assay": "Pairwise dose combination synergy, MTS cell viability, HSA analysis", "assay_type": "cell-based", "description": "as §1, §2"}, "[3]": {"tested_on": "MOLM-13 luciferase cells", "assay": "MOLM-13-Luc+ FLT3-ITD AML xenograft in NCG mice", "assay_type": "in vivo, mouse", "details": "10 mg/kg dinaciclib weekly i.p., 30 mg/kg gilteritinib daily oral gavage, or both; vehicle 24 days", "quoted_text": "(A) NCG mice were engrafted with MOLM-13 cells expressing luciferase and treated with vehicle, 10 mg/kg dinaciclib weekly, 30 mg/kg gilteritinib daily, or dinaciclib/gilteritinib combination.\nAnimal Studies All animal studies were carried out under protocols approved by The Ohio State University Institutional Animal Care and Use Committee (IACUC). 1×10^5 MOLM-13 luciferase cells were injected via tail vein into male NOD-Prkdc^em26Cd52Il2rg^em26Cd22/NjuCrl (NCG) from the Charles River Laboratory. On day 4 post-engraftment, mice were randomized to treatment arms. Mice received the following drugs and doses: weekly intraperitoneal injections of 10 mg/kg dinaciclib (MedChemExpress HY-10492) in 20% cyclodextrin (CTD THPB-P) diluted just prior to injection, daily oral gavage of 30 mg/kg gilteritinib (MedChemExpress HY-1432) in 6% drug w/w gelucire 44/14 (Gattefosse, France) aliquoted and mixed with drug weekly, oral gavage of vehicle control (gelucire 44/14), or combination therapy at single-agent regimens."}, "[4]": {"tested_on": "shRNA-stable MOLM-13 cells", "assay": "Annexin V/PI flow cytometry of shRNA-stable cells treated with gilteritinib", "assay_type": "cell-based, human", "details": "8 nM gilteritinib, 120 hours", "description": "(A-D) Knockdown efficiency of selected targets by shRNA as detected by qPCR and Western blotting; GAPDH or β-actin serves as loading control. N=2. *p<0.05; **p<0.01; (E-H) Dose-response curves of shCDK9, shDHODH, shPRMT5 and shCDK7-stable MOLM-13 cells in response to 120-hour gilteritinib treatment. Cell viability was measured with MTS. Results are shown as mean±SEM of 4 technical replicates and 3-4 biological replicates. ***p-value<0.0001; ns=not significant. I) Knockdown of CDK9, PRMT5 or DHODH but not CDK7 with shRNA increases the frequency of apoptotic AML cell lines with gilteritinib. Parental, scrambled or gene-targeting shRNA-stable MOLM-13 cells were treated with 8 nM gileritinib for 120 hours and stained with Annexin V/PI for flow cytometry analysis. Data are shown as mean±SEM of % population from triplicates.\nDHODH, CDK9 and PRMT5 genes were selected for validation, in light of their strong synergistic interactions with gilteritinib and availability of clinical grade inhibitors. MOLM-13 cells were transduced with shRNA targeting each of these genes and knockdown efficiencies were confirmed via qPCR and Western Blotting (FIG. 2A-D). Scrambled or gene-targeting shRNA transduced cells were treated with gilteritinib (2-25 nM dose range) for 120 hours followed by MTS analysis to quantify cell proliferation."}, "[5]": {"tested_on": "MOLM-13 cells", "assay": "Proliferation assay of FLT3 inhibitor with telaglenastat, HSA analysis", "assay_type": "cell-based, human", "details": "MOLM-13, 48 hours", "description": "Proliferation assay of a range of doses of midostaurin or gilteritinib with telaglenstat on MOLM-13 cells treated for 48 hours. Highest single agent (HSA) analysis was used to determine regions of synergy.\nFLT3-ITD inhibition reduces glutaminolysis by blocking glutamine influx through SLC1A5, the primary glutamine transporter^15,16. SLC38A2 can serve as a redundant glutamine transporter to compensate the deficiency of SLC1A5^17."}, "[6]": {"details": "gilteritinib paired with dinaciclib or EPZ015666, dinaciclib 2 hours then washed off, others 48-96 hours"}, "[7]": {"details": "gilteritinib paired with dinaciclib or EPZ015666"}}, "data": [{"smiles": "O=C(NC[C@H](O)CN1CCc2ccccc2C1)c1cc(NC2COC2)ncn1", "note": "[EPZ015666]", "values": [{"measurement": "synergy range (drug concentration)", "setting": "[1]; in combination with 2-10 nM gilteritinib", "result": "1000 to 100000", "unit": "nM"}, {"measurement": "maximum synergy (drug concentration)", "setting": "[2]; in combination with 0.1-8 nM gilteritinib", "result": "3000 to 100000", "unit": "nM"}]}, {"smiles": "CCc1cnn2c(NCc3ccc[n+]([O-])c3)cc(N3CCCC[C@H]3CCO)nc12", "note": "[dinaciclib]", "values": [{"measurement": "synergy range (drug concentration)", "setting": "[1]; [6]", "result": "0.0075 to 0.01", "unit": "nM"}, {"measurement": "maximum synergy (drug concentration)", "setting": "[2]; [7]", "result": "0.0075 to 0.01", "unit": "nM"}, {"measurement": "mean survival time", "setting": "[3]", "result": 27.5, "unit": "days"}]}, {"smiles": "CCc1nc(C(N)=O)c(Nc2ccc(N3CCC(N4CCN(C)CC4)CC3)c(OC)c2)nc1NC1CCOCC1", "note": "[gilteritinib]", "values": [{"measurement": "synergy range (drug concentration)", "setting": "[1]; [6]", "result": "2 to 10", "unit": "nM"}, {"measurement": "increase of necroptotic/apoptotic cells vs scrambled control", "setting": "[4]; knockdown of CDK9", "result": 9, "unit": "fold"}, {"measurement": "increase of necroptotic/apoptotic cells vs scrambled control", "setting": "[4]; knockdown of DHODH", "result": 5, "unit": "fold"}, {"measurement": "increase of necroptotic/apoptotic cells vs scrambled control", "setting": "[4]; knockdown of PRMT5", "result": 2.6, "unit": "fold"}, {"measurement": "maximum synergy (drug concentration)", "setting": "[2]; [7]", "result": "0.1 to 8", "unit": "nM"}, {"measurement": "mean survival time", "setting": "[3]", "result": 39, "unit": "days"}]}, {"smiles": "O=C(Cc1cccc(OC(F)(F)F)c1)Nc1ccc(CCCCc2nnc(NC(=O)Cc3ccccn3)s2)nn1", "note": "[telaglenastat]", "values": [{"measurement": "cytotoxic effect in combination with gilteritinib", "setting": "[5]", "result": "synergistic cytotoxic effect"}, {"measurement": "cytotoxic effect in combination with midostaurin", "setting": "[5]", "result": "synergistic cytotoxic effect"}]}]}
